According to PubChem BioAssay (NCI):
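Method: 48-hour compound exposure of cells in 96-well plates, five concentrations, linear interpolation of endpoints. Here, GI50 denotes the concentration required for 50% inhibition of growth. TGI: total growth inhibition.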

Tests used:
Assay in all cases: growth of human tumour cells (NCI), 48 h
OVCAR-3 ovarian = test system: OVCAR-3 ovarian
LOX IMVI melanoma = test system: LOX IMVI melanoma
HOP-92 NSCLC = test system: HOP-92 NSCLC
ACHN renal = test system: ACHN renal
SK-MEL-28 melanoma = test system: SK-MEL-28 melanoma
SK-OV-3 ovarian = test system: SK-OV-3 ovarian
SNB-19 CNS = test system: SNB-19 CNS
CAKI-1 renal = test system: CAKI-1 renal
MCF7 breast = test system: MCF7 breast
T-47D breast = test system: T-47D breast

SMILES	TGI (OVCAR-3 ovarian)	TGI (LOX IMVI melanoma)	TGI (HOP-92 NSCLC)	TGI (ACHN renal)	TGI (SK-MEL-28 melanoma)	TGI (SK-OV-3 ovarian)	TGI (SNB-19 CNS)	TGI (CAKI-1 renal)	GI50 (OVCAR-3 ovarian)	GI50 (CAKI-1 renal)	GI50 (MCF7 breast)	TGI (MCF7 breast)	GI50 (LOX IMVI melanoma)	GI50 (HOP-92 NSCLC)	GI50 (ACHN renal)	GI50 (SK-MEL-28 melanoma)	GI50 (T-47D breast)	TGI (T-47D breast)	GI50 (SNB-19 CNS)	GI50 (SK-OV-3 ovarian)
Cc1ccccc1C1=[N+]([O-])c2ccccc2C1=O	25.2 µM	35 µM	62.5 µM	30.6 µM	35.8 µM	> 100 µM	> 100 µM	–	–	–	–	–	–	–	–	–	–	–	–	–
Nc1nc2sc3ccccc3c(=O)n2n1	> 100 µM	> 100 µM	> 100 µM	> 100 µM	> 100 µM	> 100 µM	> 100 µM	> 100 µM	–	–	–	–	–	–	–	–	–	–	–	–
O=C(Nc1ccc(F)cc1)Nc1ccccc1CNc1nc(Nc2ccc(OCCN3CCCC3)cc2)ncc1Cl	2.01 µM	1.69 µM	2.49 µM	3.15 µM	1.78 µM	–	11.1 µM	9.25 µM	1.01 µM	2.87 µM	1.37 µM	4.75 µM	0.914 µM	0.849 µM	1.26 µM	0.899 µM	1.48 µM	4.28 µM	3 µM	–
CC/C(=C(/c1ccc(OCCN(C)C)cc1)c1ccc(OC(=O)CCC(=O)c2c(C)[nH]c(/C=C3\N=C(c4ccc[nH]4)C=C3OC)c2C)cc1)c1ccccc1	10.3 µM	1.69 µM	4.13 µM	15.9 µM	12.4 µM	29.6 µM	21.8 µM	16 µM	2.08 µM	2.66 µM	< 0.0217 µM	2.66 µM	0.456 µM	0.749 µM	2.57 µM	2.89 µM	1.34 µM	7.79 µM	5.49 µM	6.99 µM
CC(C)Nc1ccc(Nc2ccccc2)cc1	21.8 µM	29.1 µM	30 µM	15 µM	95.1 µM	> 100 µM	> 100 µM	17.4 µM	9.49 µM	4.06 µM	11.1 µM	31.9 µM	13.1 µM	12 µM	3.31 µM	28.1 µM	15.5 µM	38.8 µM	25.5 µM	39.9 µM
Nc1cc(C(=O)O)[nH]c(=O)n1	> 100 µM	> 100 µM	> 100 µM	> 100 µM	> 100 µM	> 100 µM	> 100 µM	> 100 µM	–	–	–	> 100 µM	–	–	–	–	–	–	–	–
Cn1cc(C2=C(c3cccc(N)c3)C(=O)NC2=O)c2ccccc21	> 25 µM	> 25 µM	> 25 µM	> 25 µM	> 25 µM	> 25 µM	> 25 µM	> 25 µM	5.67 µM	13 µM	4.19 µM	> 25 µM	8.76 µM	> 25 µM	5.85 µM	> 25 µM	14.3 µM	> 25 µM	> 25 µM	> 19 µM
Cn1cc(C2=C(c3cn(CCO)c4ccccc34)C(=O)NC2=O)c2ccccc21	14 µM	> 25 µM	–	> 25 µM	20.2 µM	> 21.9 µM	> 25 µM	> 24.1 µM	1.78 µM	3.79 µM	1.24 µM	> 25 µM	2.77 µM	–	4 µM	3.76 µM	3.96 µM	13.1 µM	7.09 µM	2.61 µM
COC(=O)C1=C(C)NC(C)=C(C(=O)OC)C1/C=C(\Cl)c1ccc(Cl)c(Cl)c1	26.3 µM	23.5 µM	–	25.5 µM	27.7 µM	49 µM	41.6 µM	27.2 µM	12.8 µM	13.7 µM	11.4 µM	33.5 µM	11.4 µM	–	12.8 µM	13.2 µM	20.2 µM	50.1 µM	18.8 µM	21.1 µM
c1ccc2c(c1)sc1c3cnccc3ccc21	> 100 µM	> 100 µM	–	> 100 µM	> 100 µM	> 100 µM	> 100 µM	> 100 µM	–	–	–	> 100 µM	–	–	–	–	–	> 100 µM	–	–
Cc1oc2c(C)c3oc(=O)cc(C)c3cc2c1CNC(=O)[C@@H]1OCCOCCOCCOCCOCCOC1C(=O)O (some centres undefined)	> 100 µM	> 100 µM	> 100 µM	> 100 µM	–	> 100 µM	> 100 µM	> 100 µM	–	–	–	–	–	–	–	–	–	–	–	–
CCOC(=O)/C(=N\OC)C(O)C(F)(F)F (centres undefined)	–	> 100 µM	–	> 100 µM	> 100 µM	> 100 µM	> 100 µM	> 100 µM	–	–	–	> 100 µM	–	–	–	–	–	> 100 µM	–	–
CCCCCCCC(=O)NCC(O)CNC(=O)CCCCCCC	> 100 µM	> 100 µM	> 100 µM	–	–	> 100 µM	> 100 µM	> 100 µM	–	–	–	–	–	–	–	–	–	–	–	–
CCOC(=O)c1c(-c2ccccc2)oc(-c2ccccc2)c1C(=O)OCC	> 100 µM	> 100 µM	> 100 µM	> 100 µM	> 100 µM	> 100 µM	> 100 µM	–	–	–	–	–	–	–	–	–	–	–	–	–
N#C/C(=N\Nc1ccc(Cl)cc1)C(=O)Nc1cc(-c2ccccc2)nn1-c1ccccc1	> 100 µM	–	4.49 µM	> 100 µM	> 100 µM	6.66 µM	> 100 µM	–	2.71 µM	–	–	–	–	1.07 µM	2.84 µM	3.62 µM	2.01 µM	7.12 µM	3.17 µM	2.28 µM
CC[O-].CC[O-].O=C([CH-]C(=O)c1cccnc1)c1ccccc1.O=C([CH-]C(=O)c1cccnc1)c1ccccc1.[Ti+4]	> 100 µM	> 100 µM	–	> 100 µM	> 100 µM	> 100 µM	> 100 µM	> 100 µM	> 100 µM	> 100 µM	–	–	> 100 µM	–	53.4 µM	> 100 µM	–	–	50 µM	91.8 µM
CN(C)CCN(C)CC1COC(C)(C)O1 (centres undefined)	> 100 µM	> 100 µM	> 100 µM	> 100 µM	> 100 µM	> 100 µM	> 100 µM	> 100 µM	–	–	–	–	–	–	–	–	–	–	–	–
O=C(C=Nc1ccccc1C(=O)[O-])c1cccs1.O=C(C=Nc1ccccc1C(=O)[O-])c1cccs1.[Co+2]	95.1 µM	> 100 µM	> 100 µM	> 100 µM	> 100 µM	> 100 µM	> 100 µM	> 100 µM	–	–	–	–	–	–	–	–	–	–	–	–
